Measured values: ChEMBL document CHEMBL3352125, “Cytotoxic activity of substituted chalcones in terms of molecular electronic properties” (Bioorg Med Chem Lett, 2014)

Assays:
Type in all cases: functional, cell-based
[1] = Cytotoxicity against human HL60 cells by MTT assay; details: HL-60
[2] = Cytotoxicity against human WM115 cells by MTT assay; details: WM-115
[3] = Cytotoxicity against human NALM6 cells by MTT assay; details: NALM-6

Compound | IC50 [1] | IC50 [2] | IC50 [3]
O=C(/C=C/c1ccc(Br)cc1)c1ccccc1O | 7.3 µM | 50 µM | 6.8 µM
O=C(/C=C/c1ccccc1)c1cc(O)ccc1O | 5.3 µM | 61.3 µM | 5.5 µM
O=C(/C=C/c1ccc(Cl)cc1)c1ccccc1O | 8.3 µM | 48.9 µM | 9.3 µM
O=C(/C=C/c1ccc([N+](=O)[O-])cc1)c1ccccc1O | 5.8 µM | 27.6 µM | 6.9 µM
O=C(/C=C/c1ccccc1)c1ccccc1O [2'-HYDROXYCHALCONE] | 18 µM | 40.8 µM | 37.5 µM
COc1cc(/C=C/C(=O)c2ccccc2O)cc(OC)c1OC | 39.3 µM | 56.4 µM | 31.7 µM
O=C(/C=C/c1ccccc1)c1ccc(O)cc1O [2',4'-DIHYDROXYCHALCONE] | 6.3 µM | 42 µM | 18 µM
O=C1CCOc2ccccc21 [CHROMANONE] | 19.1 µM | 53.2 µM | 8.2 µM
O=C(/C=C/c1ccccc1)c1ccccc1 [CHALCONE] | 55.4 µM | 43.1 µM | 23.9 µM
O=C(/C=C/c1ccc(O)cc1)c1ccccc1O | 7.1 µM | 69.1 µM | 40.6 µM
COc1ccc(/C=C/C(=O)c2ccccc2O)cc1 | 48.7 µM | 60.5 µM | 50.2 µM
O=C(/C=C/c1ccccc1Cl)c1ccccc1O | 7.7 µM | 7.6 µM | 6.1 µM
